Measured values from patent US20120016019A1, “PHARMACEUTICAL COMPOSITION FOR TREATING OR PREVENTING CANCER” (priority 2010, published 2012).
Several values for one entry are separate records, joined by “and”; a condition that tells them apart may be missing. Identical values can stand only once. Entries after “also recorded” stand apart in the source; their conditions may differ. Like-named read-outs stand apart in the source and are kept apart here.

Columns and labels:
Format in all cases: cell-based
TT [1] = assay: Cell counts, TT
Description: (§1) As a result, LC-50 curves were generated in the 1st week.
(§2) In the 2nd plate, 7 d of the 1st week (LC-50) is the same as 0 h of the 2nd week (recovery).
(§3) At 0 h of the 2nd week, medium was exchanged with untreated medium for the remainder of the experiment. […] As a result, Recovery curves were generated in the 2nd week.

CCD-1074sk = settings: for cell counts: single count
Description: as §1, §2, §3

MCF-7 = assay: Cell counts, MCF-7; settings: for cell counts: single wells
Description: (§4) Cancer cell lines HCC 1419, MCF-7, MDA-MB-468, SKBR3, PC3, HT1299, Saos-2, C-6, AsPc, MDA-MB-231, RKO, HeLa and TT, and normal cell lines HME 50 HT, BJ and CCD-1074sk were tested for changes in metabolism (XTT assay) and cell death (cell counts).
(§5) Cells were plated into 48-well Corning CellBind™ plates at densities of 20,000 cells for normal cells and 10,000˜20,000 cells for cancer cells. 24 to 48 h after plating, cells were treated with the composition according to the invention at concentrations of 4.5e-2M. The first time point treated with the composition of the invention is 0 h. At 3 days after the first treatment with the composition of the invention, medium was changed and the composition of the invention at the same concentrations were added to the cultured cells.
(§6) Cells were harvested using Trypsin-EDTA at the designated time points. […] Two 48-well plates were used per cell line, and they were measured at 0 h, 12 h, 24 h, 48 h, 4 d and 7 d, respectively.
(§7) In the 1st plate, cells were treated with the composition according to the invention and medium was changed at 0 h and 3 d. […] As a result, LC-50 curves were generated in the 1st week.
(§8) At 0 h of the 2nd week, medium was exchanged with untreated medium for the remainder of the experiment. The untreated controls were not measured in the 2nd week (recovery) due to overconfluence by the end of the 1st week. As a result, Recovery curves were generated in the 2nd week.

MDA-MB-468 = assay: Cell counts, MDA-MB-468; settings: for cell counts: single wells
Description: as §4, §5, §6, §7, §8

TT [2] = assay: XTT cell viability assay, TT; settings: for The absorbance, group - Blank: mean minus blank; for The absorbance: single value
Description: as §4, §5
Cells were seeded in a 96-well tissue culture plate at a density of 10,000 cells for normal cells and 5,000 cells for cancer cells. After incubation period, the formazan dye formed was quantitated using an ELISA reader. The optimal wavelength used in experiments was 500 nm, and it was measured at 0 h, 12 h, 24 h, 48 h, 4 d and 7 d, respectively. The obtained values were generated using the software SoftMax Pro 4.8.
The cell viability was calculated according to the manufacturer's instructions as follows (the term “blank” means XTT in medium only):
Cellular cytotoxicity was calculated according to the manufacturer's instructions as follows:

AsPc = assay: Cell counts, AsPc
Description: as §4, §5, §6, §7

CC(=O)O[C@H]1C(=O)[C@@]2(C)[C@H]([C@H](OC(=O)c3ccccc3)[C@]3(O)C[C@H](OC(=O)[C@H](O)[C@@H](NC(=O)c4ccccc4)c4ccccc4)C(C)=C1C3(C)C)[C@]1(OC(C)=O)CO[C@@H]1C[C@@H]2O [Taxol]
cell counts (TT [1]; 1st week (LC50), 0 h): 133000 and 117500 and 123000
cell counts, Mean value (TT [1]; 1st week (LC50), 0 h): 124500
cell counts, Mean value (TT [1]; 1st week (LC50), 24 h): 106333
cell counts (TT [1]; 1st week (LC50), 48 h): 175000 and 109000 and 114000
cell counts, Mean value (TT [1]; 1st week (LC50), 48 h): 132667
cell counts (TT [1]; 1st week (LC50), 4 d): 84000 and 72500 and 56000
cell counts, Mean value (TT [1]; 1st week (LC50), 4 d): 70833
cell counts (TT [1]; 1st week (LC50), 7 d): 35000 and 26000
cell counts, Mean value (TT [1]; 1st week (LC50), 7 d): 32000
cell counts, Mean value (TT [1]; 2nd week (recovery), 0 h, mean value): 44000
cell counts (TT [1]; 2nd week (recovery), 0 h, single count): 44000 and 53000 and 35000
cell counts, Mean value (TT [1]; 2nd week (recovery), 24 h, mean value): 17667
cell counts, Mean value (TT [1]; 2nd week (recovery), 48 h, mean value): 30667
cell counts (TT [1]; 2nd week (recovery), 48 h, single count): 35000 and 31000 and 26000
cell counts, Mean value (TT [1]; 2nd week (recovery), 4 d, mean value): 16667
cell counts (TT [1]; 2nd week (recovery), 4 d, single count): 15000 and 12500
cell counts, Mean value (TT [1]; 2nd week (recovery), 7 d, mean value): 11500
cell counts, Mean value (CCD-1074sk; 1st week (LC50), 0 h): 8000
cell counts (CCD-1074sk; 1st week (LC50), 0 h): 9000 and 7000
cell counts, Mean value (CCD-1074sk; 1st week (LC50), 24 h): 15500
cell counts (CCD-1074sk; 1st week (LC50), 24 h): 15000 and 16000
cell counts, Mean value (CCD-1074sk; 1st week (LC50), 48 h): 10500
cell counts (CCD-1074sk; 1st week (LC50), 48 h): 10000 and 11000
cell counts, Mean value (CCD-1074sk; 1st week (LC50), 4 d): 4500
cell counts (CCD-1074sk; 1st week (LC50), 4 d): 6000 and 3000
cell counts, Mean value (CCD-1074sk; 1st week (LC50), 7 d): 11500
cell counts (CCD-1074sk; 1st week (LC50), 7 d): 11000 and 12000
cell counts, Mean value (CCD-1074sk; 2nd week (recovery), 0 h): 10500
cell counts (CCD-1074sk; 2nd week (recovery), 0 h): 10000 and 11000
cell counts, Mean value (CCD-1074sk; 2nd week (recovery), 48 h): 8000
cell counts (CCD-1074sk; 2nd week (recovery), 48 h): 10000 and 6000
cell counts, Mean value (CCD-1074sk; 2nd week (recovery), 4 d): 5500
cell counts (CCD-1074sk; 2nd week (recovery), 4 d): 4000 and 7000
cell counts (CCD-1074sk; 2nd week (recovery), 7 d): 18000 and 9000
cell counts, Mean value (MCF-7; 1st week (LC50), 0 h): 55333
cell counts (MCF-7; 1st week (LC50), 0 h): 39000 and 67000 and 60000
cell counts, Mean value (MCF-7; 1st week (LC50), 24 h): 43667
cell counts (MCF-7; 1st week (LC50), 24 h): 39000 and 54000 and 38000
cell counts, Mean value (MCF-7; 1st week (LC50), 48 h): 23333
cell counts (MCF-7; 1st week (LC50), 48 h): 21000 and 19000 and 30000
cell counts, Mean value (MCF-7; 1st week (LC50), 4 d): 21667
cell counts, Mean value (MCF-7; 1st week (LC50), 7 d): 4333
cell counts (MCF-7; 1st week (LC50), 7 d): 4000 and 5000
cell counts, Mean value (MCF-7; 2nd week (recovery), 0 h): 2032
cell counts (MCF-7; 2nd week (recovery), 0 h): 2361 and 1648 and 2087
cell counts, Mean value (MCF-7; 2nd week (recovery), 24 h): 646
cell counts (MCF-7; 2nd week (recovery), 24 h): 807 and 728
cell counts, Mean value (MCF-7; 2nd week (recovery), 48 h): 2084
cell counts (MCF-7; 2nd week (recovery), 48 h): 1726 and 2010 and 2517
cell counts, Mean value (MCF-7; 2nd week (recovery), 4 d): 2013
cell counts (MCF-7; 2nd week (recovery), 4 d): 2135 and 1892 and 2011
cell counts, Mean value (MCF-7; 2nd week (recovery), 7 d): 1772
cell counts (MCF-7; 2nd week (recovery), 7 d): 2098 and 1693 and 1524
cell counts (trend) (MDA-MB-468): increasing; also recorded: again recovering
cell counts, Mean value (MDA-MB-468; 1st week (LC50), 0 h): 36000
cell counts (MDA-MB-468; 1st week (LC50), 0 h): 32000 and 40000
cell counts, Mean value (MDA-MB-468; 1st week (LC50), 24 h): 23333
cell counts (MDA-MB-468; 1st week (LC50), 24 h): 24000 and 30000 and 16000
cell counts, Mean value (MDA-MB-468; 1st week (LC50), 48 h): 13000
cell counts (MDA-MB-468; 1st week (LC50), 48 h): 10000 and 12000 and 17000
cell counts, Mean value (MDA-MB-468; 1st week (LC50), 4 d): 17667
cell counts (MDA-MB-468; 1st week (LC50), 4 d): 15000 and 18000 and 20000
cell counts, Mean value (MDA-MB-468; 1st week (LC50), 7 d): 9000
cell counts, Mean value (MDA-MB-468; 2nd week (recovery), 0 h): 8333
cell counts, Mean value (MDA-MB-468; 2nd week (recovery), 24 h): 3667
cell counts (MDA-MB-468; 2nd week (recovery), 24 h): 4000 and 3000
cell counts, Mean value (MDA-MB-468; 2nd week (recovery), 48 h): 8333
cell counts, Mean value (MDA-MB-468; 2nd week (recovery), 4 d): 9333
cell counts (MDA-MB-468; 2nd week (recovery), 4 d): 9000 and 10000
cell counts, Mean value (MDA-MB-468; 2nd week (recovery), 7 d): 11667
cell counts (MDA-MB-468; 2nd week (recovery), 7 d): 9000 and 11000 and 15000
The cytotoxicity (TT [2]; 1st week (LC50), 0 h): 0.6095
The viability (TT [2]; 1st week (LC50), 0 h): 0.3905
The absorbance, group - Blank (TT [2]; 1st week (LC50), 0 h): 0.1760
The absorbance, Mean value (TT [2]; 1st week (LC50), 0 h): 0.4394
The absorbance (TT [2]; 1st week (LC50), 0 h): 0.4452 and 0.4456
The cytotoxicity (TT [2]; 1st week (LC50), 12 h): −0.2604
The viability (TT [2]; 1st week (LC50), 12 h): 1.2604
The absorbance, group - Blank (TT [2]; 1st week (LC50), 12 h): 1.5590
The absorbance, Mean value (TT [2]; 1st week (LC50), 12 h): 1.8224
The absorbance (TT [2]; 1st week (LC50), 12 h): 1.512 and 1.5452
The cytotoxicity (TT [2]; 1st week (LC50), 24 h): −0.0831
The viability (TT [2]; 1st week (LC50), 24 h): 1.0831
The absorbance, group - Blank (TT [2]; 1st week (LC50), 24 h): 2.2745
The absorbance, Mean value (TT [2]; 1st week (LC50), 24 h): 2.5379
The cytotoxicity (TT [2]; 1st week (LC50), 48 h): 0.5671
The viability (TT [2]; 1st week (LC50), 48 h): 0.4329
The absorbance, group - Blank (TT [2]; 1st week (LC50), 48 h): 1.1834
The absorbance, Mean value (TT [2]; 1st week (LC50), 48 h): 1.4468
The absorbance (TT [2]; 1st week (LC50), 48 h): 1.6834 and 1.3166
The cytotoxicity (TT [2]; 1st week (LC50), 4 d): −0.3186
The viability (TT [2]; 1st week (LC50), 4 d): 1.3186
The absorbance, group - Blank (TT [2]; 1st week (LC50), 4 d): 1.9816
The cytotoxicity (TT [2]; 1st week (LC50), 7 d): 0.5080
The viability (TT [2]; 1st week (LC50), 7 d): 0.4920
The absorbance, group - Blank (TT [2]; 1st week (LC50), 7 d): 0.9498
The absorbance, Mean value (TT [2]; 1st week (LC50), 7 d): 1.2132
The absorbance (TT [2]; 1st week (LC50), 7 d): 1.2763
The cytotoxicity (TT [2]; 2nd week (recovery), 0 h): −3.3443
The viability (TT [2]; 2nd week (recovery), 0 h): 4.3443
The absorbance, group - Blank (TT [2]; 2nd week (recovery), 0 h): 1.9578
The absorbance, Mean value (TT [2]; 2nd week (recovery), 0 h): 2.2212
The cytotoxicity (TT [2]; 2nd week (recovery), 12 h): −0.1062
The viability (TT [2]; 2nd week (recovery), 12 h): 1.1062
The absorbance, group - Blank (TT [2]; 2nd week (recovery), 12 h): 2.3230
The absorbance, Mean value (TT [2]; 2nd week (recovery), 12 h): 2.5864
The cytotoxicity (TT [2]; 2nd week (recovery), 24 h): 0.5481
The viability (TT [2]; 2nd week (recovery), 24 h): 0.4519
The absorbance, group - Blank (TT [2]; 2nd week (recovery), 24 h): 1.2354
The absorbance, Mean value (TT [2]; 2nd week (recovery), 24 h): 1.4988
The cytotoxicity (TT [2]; 2nd week (recovery), 48 h): 0.6857
The viability (TT [2]; 2nd week (recovery), 48 h): 0.3143
The absorbance, group - Blank (TT [2]; 2nd week (recovery), 48 h): 0.4723
The absorbance, Mean value (TT [2]; 2nd week (recovery), 48 h): 0.7357
The cytotoxicity (TT [2]; 2nd week (recovery), 4 d): 0.8411
The viability (TT [2]; 2nd week (recovery), 4 d): 0.1589
The absorbance, group - Blank (TT [2]; 2nd week (recovery), 4 d): 0.3067
The absorbance, Mean value (TT [2]; 2nd week (recovery), 4 d): 0.5701
The absorbance (TT [2]; 2nd week (recovery), 4 d): 0.4887 and 0.7079 and 0.5136
The cytotoxicity (TT [2]; 2nd week (recovery), 7 d): −3.3443
The viability (TT [2]; 2nd week (recovery), 7 d): 4.3443
The absorbance, group - Blank (TT [2]; 2nd week (recovery), 7 d): 1.9578
The absorbance, Mean value (TT [2]; 2nd week (recovery), 7 d): 0.2634
The absorbance (TT [2]; 2nd week (recovery), 7 d): 0.2616 and 0.2542 and 0.2744
process of cell death (microscopy) (AsPc): cell membranes were ruptured by toxicity of Taxol, and then nuclei of cells changed into black
cell counts (AsPc; 1st week (LC50), 0 h): 2340 and 2039 and 2111
cell counts, Mean value (AsPc; 1st week (LC50), 0 h): 2163
cell counts (AsPc; 1st week (LC50), 12 h): 2833 and 2279 and 2550
cell counts, Mean value (AsPc; 1st week (LC50), 12 h): 2554
cell counts (AsPc; 1st week (LC50), 24 h): 2336 and 2161 and 2310
cell counts, Mean value (AsPc; 1st week (LC50), 24 h): 2269
cell counts (AsPc; 1st week (LC50), 48 h): 2810 and 2130 and 1800
cell counts (AsPc; 1st week (LC50), 4 d): 2007 and 2100
cell counts, Mean value (AsPc; 1st week (LC50), 4 d): 2042
cell counts (AsPc; 1st week (LC50), 7 d): 2174 and 1902
cell counts, Mean value (AsPc; 1st week (LC50), 7 d): 1823
cell counts (AsPc; 2nd week (recovery), 0 h): 1213 and 1770
cell counts (AsPc; 2nd week (recovery), 48 h): 1210 and 1202
cell counts, Mean value (AsPc; 2nd week (recovery), 4 d): 631
cell counts (AsPc; 2nd week (recovery), 7 d): 73 and 85
cell counts, Mean value (AsPc; 2nd week (recovery), 7 d): 86
